Laboratory results published in ChEMBL document CHEMBL1131189, “Conformationally restricted analogues of 1N,12N-bisethylspermine: synthesis and growth inhibitory effects on human tumor cell lines” (1998).
Values belong to the molecule of their own block, whether it stands above or below them.

What was measured:
DU-145 [1] = assay: The concentration levels of putrescine (PU) evaluated in DU145 cells treated with the compound concentration of 10 uM on third day of treatment.; assay type: functional, cell-based; details: Homo sapiens
HT-29 = assay: Growth inhibitory activity was measured for human HT-29 tumor cell line.; assay type: functional; details: Homo sapiens, HT-29; read-out: ID50 (the source's name)
DU-145 [2] = assay: The concentration levels of spermine (SP) evaluated in DU145 cells treated with the compound concentration of 10 uM on fifth day of treatment.; assay type: functional, cell-based; details: Homo sapiens
DU-145 [3] = assay: The concentration levels of spermidine (SD) evaluated in DU145 cells treated with the compound concentration of 10 uM on fifth day of treatment.; assay type: functional, cell-based; details: Homo sapiens
A549 = assay: Growth inhibitory activity was measured for human A549 tumor cell line.; assay type: functional; details: Homo sapiens, A549; read-out: ID50 (the source's name)
DU-145 [4] = assay: The concentration levels of analogue evaluated in DU145 cells treated with the compound concentration of 10 uM on fifth day of treatment.; assay type: functional, cell-based; details: Homo sapiens
DU-145 [5] = assay: The concentration levels of spermine (SP), evaluated in DU145 cells treated with the compound concentration of 10 uM on third day of treatment.; assay type: functional, cell-based; details: Homo sapiens
MCF7 = assay: Growth inhibitory activity was measured for human MCF-7 tumor cell line.; assay type: functional; details: read-out: ID50 (the source's name)
DU-145 [6] = assay: The concentration levels of spermidine (SD), evaluated in DU145 cells treated with the compound concentration of 10 uM on third day of treatment.; assay type: functional, cell-based; details: Homo sapiens
DU-145 [7] = assay: The concentration levels of analogue evaluated in DU145 cells treated with the compound concentration of 10 uM on third day of treatment.; assay type: functional, cell-based; details: Homo sapiens
PC-3 = assay: Growth inhibitory activity was measured for human PC-3 tumor cell line.; assay type: functional; details: Homo sapiens, PC-3; read-out: ID50 (the source's name)
U-251 = assay: Growth inhibitory activity was measured for human U251MG NCI tumor cell line.; assay type: functional; details: read-out: ID50 (the source's name)
DU-145 [8] = assay: The concentration levels of putrescine (PU) evaluated in DU145 cells treated with the compound concentration of 10 uM on fifth day of treatment.; assay type: functional, cell-based; details: Homo sapiens
DU-145 [9] = assay: The concentration levels of analogue evaluated for the polyamine and analogue levels in DU145 cells treated with the compound concentration of 0 uM on third day of treatment.; assay type: functional, cell-based; details: Homo sapiens
DU-145 [10] = assay: The concentration levels of spermidine (SD), evaluated for the polyamine and analogue levels in DU145 cells treated with the compound concentration of 0 uM on third day of treatment.; assay type: functional, cell-based; details: Homo sapiens
DU-145 [11] = assay: The concentration levels of analogue evaluated for the polyamine and analogue levels in DU145 cells treated with the compound concentration of 0 uM on fifth day of treatment.; assay type: functional, cell-based; details: Homo sapiens
DU-145 [12] = assay: The concentration levels of putrescine (PU) evaluated for the polyamine and analogue levels in DU145 cells treated with the compound concentration of 0 uM on fifth day of treatment.; assay type: functional, cell-based; details: Homo sapiens
DU-145 [13] = assay: The concentration levels of putrescine (PU) evaluated for the polyamine and analogue levels in DU145 cells treated with the compound concentration of 5 uM on third day of treatment.; assay type: functional, cell-based; details: Homo sapiens
DU-145 [14] = assay: The concentration levels of spermine (SP), evaluated for the polyamine and analogue levels in DU145 cells treated with the compound concentration of 0 uM on third day of treatment.; assay type: functional, cell-based; details: Homo sapiens
DU-145 [15] = assay: The concentration levels of analogue evaluated for the polyamine and analogue levels in DU145 cells treated with the compound concentration of 5 uM on fifth day of treatment.; assay type: functional, cell-based; details: Homo sapiens
DU-145 [16] = assay: The concentration levels of spermidine (SD) evaluated for the polyamine and analogue levels in DU145 cells treated with the compound concentration of 5 uM on fifth day of treatment.; assay type: functional, cell-based; details: Homo sapiens
DU-145 [17] = assay: The concentration levels of spermine (SP) evaluated for the polyamine and analogue levels in DU145 cells treated with the compound concentration of 5 uM on fifth day of treatment.; assay type: functional, cell-based; details: Homo sapiens
DU-145 [18] = assay: The concentration levels of spermine (SP), evaluated for the polyamine and analogue levels in DU145 cells treated with the compound concentration of 5 uM on fthird day of treatment.; assay type: functional, cell-based; details: Homo sapiens
DU-145 [19] = assay: The concentration levels of analogue evaluated for the polyamine and analogue levels in DU145 cells treated with the compound concentration of 5 uM on third day of treatment.; assay type: functional, cell-based; details: Homo sapiens
DU-145 [20] = assay: The concentration levels of spermine (SP) evaluated for the polyamine and analogue levels in DU145 cells treated with the compound concentration of 0 uM on fifth day of treatment.; assay type: functional, cell-based; details: Homo sapiens
DU-145 [21] = assay: The concentration levels of putrescine (PU) evaluated for the polyamine and analogue levels in DU145 cells treated with the compound concentration of 0. uM on third day of treatment.; assay type: functional, cell-based; details: Homo sapiens
DU-145 [22] = assay: The concentration levels of spermidine (SD) evaluated for the polyamine and analogue levels in DU145 cells treated with the compound concentration of 0 uM on fifth day of treatment.; assay type: functional, cell-based; details: Homo sapiens
DU-145 [23] = assay: The concentration levels of putrescine (PU) evaluated for the polyamine and analogue levels in DU145 cells treated with the compound concentration of 5 uM on fifth day of treatment.; assay type: functional, cell-based; details: Homo sapiens
DU-145 [24] = assay: The concentration levels of spermidine (SD), evaluated for the polyamine and analogue levels in DU145 cells treated with the compound concentration of 5 uM on third day of treatment.; assay type: functional, cell-based; details: Homo sapiens

IC50 (HT-29): > 31.2 µM
IC50 (A549): > 31.2 µM
IC50 (MCF7): > 31.2 µM
IC50 (PC-3): > 31.2 µM
Structure (SMILES): CCNCCCNCc1ccccc1CNCCCNCC
Concentration (nM (10e6*cells)-1) (DU-145 [1]): 0.12
Concentration (nM (10e6*cells)-1) (DU-145 [2]): 2.13
Concentration (nM (10e6*cells)-1) (DU-145 [3]): 1.84
Concentration (nM (10e6*cells)-1) (DU-145 [4]): 1.25
Concentration (nM (10e6*cells)-1) (DU-145 [5]): 2.7
Concentration (nM (10e6*cells)-1) (DU-145 [6]): 1.5
Concentration (nM (10e6*cells)-1) (DU-145 [7]): 0.82
IC50 (U-251): > 31.2 µM
Concentration (nM (10e6*cells)-1) (DU-145 [8]): 0.06

IC50 (HT-29): > 31.2 µM
IC50 (A549): > 31.2 µM
IC50 (MCF7): > 31.2 µM
IC50 (PC-3): > 31.2 µM
Structure (SMILES): CCNCCCNCC#CCNCCCNCC
Concentration (nM (10e6*cells)-1) (DU-145 [9]): 0.06
Concentration (nM (10e6*cells)-1) (DU-145 [10]): 1.73
Concentration (nM (10e6*cells)-1) (DU-145 [11]): 0.03
Concentration (nM (10e6*cells)-1) (DU-145 [12]): 0.03
Concentration (nM (10e6*cells)-1) (DU-145 [13]): 0.04
Concentration (nM (10e6*cells)-1) (DU-145 [14]): 3.13
Concentration (nM (10e6*cells)-1) (DU-145 [15]): 1.71
Concentration (nM (10e6*cells)-1) (DU-145 [16]): 0.59
Concentration (nM (10e6*cells)-1) (DU-145 [17]): 1.33
Concentration (nM (10e6*cells)-1) (DU-145 [18]): 2.56
Concentration (nM (10e6*cells)-1) (DU-145 [19]): 2.16
Concentration (nM (10e6*cells)-1) (DU-145 [20]): 1.55
Concentration (nM (10e6*cells)-1) (DU-145 [21]): 0.11
IC50 (U-251): > 31.2 µM
Concentration (nM (10e6*cells)-1) (DU-145 [22]): 1.55
Concentration (nM (10e6*cells)-1) (DU-145 [23]): 0.06
Concentration (nM (10e6*cells)-1) (DU-145 [24]): 0.9
